Results: ChEMBL document CHEMBL4507276 (2021)

Key:
[1] = target: 5'-AMP-activated protein kinase catalytic subunit alpha-1 (Homo sapiens) (UniProt Q13131); conditions: Compound concentration 1000.0 nM
[2] = target: Bone morphogenetic protein receptor type-1A (Homo sapiens) (UniProt P36894); conditions: Compound concentration 1000.0 nM
[3] = target: Cyclin-dependent kinase 5 (Homo sapiens) (UniProt Q00535); conditions: Compound concentration 1000.0 nM
[4] = target: T1, Serine/threonine-protein kinase Chk1 (Homo sapiens) (UniProt O14757); conditions: Compound concentration 1000.0 nM
T1 sequence (whole entry): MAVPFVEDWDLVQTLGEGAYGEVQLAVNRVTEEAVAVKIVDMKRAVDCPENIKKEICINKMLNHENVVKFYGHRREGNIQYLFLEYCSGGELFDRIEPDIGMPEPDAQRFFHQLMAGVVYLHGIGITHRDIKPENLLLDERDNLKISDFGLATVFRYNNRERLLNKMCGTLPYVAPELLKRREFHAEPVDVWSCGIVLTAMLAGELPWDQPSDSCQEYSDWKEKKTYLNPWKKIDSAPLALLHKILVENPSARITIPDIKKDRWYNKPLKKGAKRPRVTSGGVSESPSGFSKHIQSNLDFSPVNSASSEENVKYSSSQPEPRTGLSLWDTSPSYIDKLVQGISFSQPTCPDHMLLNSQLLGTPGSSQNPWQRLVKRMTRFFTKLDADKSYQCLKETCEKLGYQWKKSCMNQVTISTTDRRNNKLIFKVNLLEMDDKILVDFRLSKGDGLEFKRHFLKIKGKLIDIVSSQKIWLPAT

[5] = target: Dual specificity protein kinase CLK4 (Homo sapiens) (UniProt Q9HAZ1); conditions: Compound concentration 1000.0 nM
[6] = target: Casein kinase I isoform delta (Homo sapiens) (UniProt P48730); conditions: Compound concentration 1000.0 nM
[7] = target: Casein kinase I isoform gamma-1 (Homo sapiens) (UniProt Q9HCP0); conditions: Compound concentration 1000.0 nM
[8] = target: Serine/threonine-protein kinase DCLK3 (Homo sapiens) (UniProt Q9C098); conditions: Compound concentration 1000.0 nM
[9] = test system: Epidermal growth factor receptor (Homo sapiens), P00533 [T790M]; conditions: Compound concentration 1000.0 nM
[10] = target: Ephrin type-A receptor 7 (Homo sapiens) (UniProt Q15375); conditions: Compound concentration 1000.0 nM
Ephrin type-A receptor 7 (Homo sapiens), sequence (Q15375 28-998 limits assumed): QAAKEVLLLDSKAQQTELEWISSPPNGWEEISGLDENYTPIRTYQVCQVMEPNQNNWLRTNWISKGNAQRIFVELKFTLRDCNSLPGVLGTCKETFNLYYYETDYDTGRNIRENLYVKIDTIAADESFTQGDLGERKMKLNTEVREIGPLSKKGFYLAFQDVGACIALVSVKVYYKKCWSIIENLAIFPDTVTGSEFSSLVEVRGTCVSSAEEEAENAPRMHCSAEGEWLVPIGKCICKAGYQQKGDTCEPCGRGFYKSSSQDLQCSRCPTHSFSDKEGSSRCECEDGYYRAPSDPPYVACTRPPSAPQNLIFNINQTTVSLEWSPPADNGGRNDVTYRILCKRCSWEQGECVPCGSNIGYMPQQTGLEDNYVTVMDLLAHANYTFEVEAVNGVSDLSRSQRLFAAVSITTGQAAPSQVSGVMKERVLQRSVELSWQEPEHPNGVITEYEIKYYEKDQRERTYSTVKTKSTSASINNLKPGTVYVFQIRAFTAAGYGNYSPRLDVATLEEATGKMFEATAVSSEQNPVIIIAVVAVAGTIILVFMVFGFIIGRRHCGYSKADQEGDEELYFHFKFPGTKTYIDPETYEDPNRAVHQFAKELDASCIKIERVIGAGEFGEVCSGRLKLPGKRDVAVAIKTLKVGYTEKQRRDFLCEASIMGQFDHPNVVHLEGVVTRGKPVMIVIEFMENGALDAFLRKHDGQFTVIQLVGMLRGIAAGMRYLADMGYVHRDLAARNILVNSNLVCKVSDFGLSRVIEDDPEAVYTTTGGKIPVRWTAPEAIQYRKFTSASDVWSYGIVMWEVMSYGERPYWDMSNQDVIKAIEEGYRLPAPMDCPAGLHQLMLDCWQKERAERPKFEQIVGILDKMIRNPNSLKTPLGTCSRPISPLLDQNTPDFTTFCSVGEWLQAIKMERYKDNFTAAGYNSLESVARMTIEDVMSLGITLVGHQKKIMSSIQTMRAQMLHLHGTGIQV

[11] = target: Receptor tyrosine-protein kinase erbB-4 (Homo sapiens) (UniProt Q15303); conditions: Compound concentration 1000.0 nM
Receptor tyrosine-protein kinase erbB-4 (Homo sapiens), sequence (Q15303 whole entry): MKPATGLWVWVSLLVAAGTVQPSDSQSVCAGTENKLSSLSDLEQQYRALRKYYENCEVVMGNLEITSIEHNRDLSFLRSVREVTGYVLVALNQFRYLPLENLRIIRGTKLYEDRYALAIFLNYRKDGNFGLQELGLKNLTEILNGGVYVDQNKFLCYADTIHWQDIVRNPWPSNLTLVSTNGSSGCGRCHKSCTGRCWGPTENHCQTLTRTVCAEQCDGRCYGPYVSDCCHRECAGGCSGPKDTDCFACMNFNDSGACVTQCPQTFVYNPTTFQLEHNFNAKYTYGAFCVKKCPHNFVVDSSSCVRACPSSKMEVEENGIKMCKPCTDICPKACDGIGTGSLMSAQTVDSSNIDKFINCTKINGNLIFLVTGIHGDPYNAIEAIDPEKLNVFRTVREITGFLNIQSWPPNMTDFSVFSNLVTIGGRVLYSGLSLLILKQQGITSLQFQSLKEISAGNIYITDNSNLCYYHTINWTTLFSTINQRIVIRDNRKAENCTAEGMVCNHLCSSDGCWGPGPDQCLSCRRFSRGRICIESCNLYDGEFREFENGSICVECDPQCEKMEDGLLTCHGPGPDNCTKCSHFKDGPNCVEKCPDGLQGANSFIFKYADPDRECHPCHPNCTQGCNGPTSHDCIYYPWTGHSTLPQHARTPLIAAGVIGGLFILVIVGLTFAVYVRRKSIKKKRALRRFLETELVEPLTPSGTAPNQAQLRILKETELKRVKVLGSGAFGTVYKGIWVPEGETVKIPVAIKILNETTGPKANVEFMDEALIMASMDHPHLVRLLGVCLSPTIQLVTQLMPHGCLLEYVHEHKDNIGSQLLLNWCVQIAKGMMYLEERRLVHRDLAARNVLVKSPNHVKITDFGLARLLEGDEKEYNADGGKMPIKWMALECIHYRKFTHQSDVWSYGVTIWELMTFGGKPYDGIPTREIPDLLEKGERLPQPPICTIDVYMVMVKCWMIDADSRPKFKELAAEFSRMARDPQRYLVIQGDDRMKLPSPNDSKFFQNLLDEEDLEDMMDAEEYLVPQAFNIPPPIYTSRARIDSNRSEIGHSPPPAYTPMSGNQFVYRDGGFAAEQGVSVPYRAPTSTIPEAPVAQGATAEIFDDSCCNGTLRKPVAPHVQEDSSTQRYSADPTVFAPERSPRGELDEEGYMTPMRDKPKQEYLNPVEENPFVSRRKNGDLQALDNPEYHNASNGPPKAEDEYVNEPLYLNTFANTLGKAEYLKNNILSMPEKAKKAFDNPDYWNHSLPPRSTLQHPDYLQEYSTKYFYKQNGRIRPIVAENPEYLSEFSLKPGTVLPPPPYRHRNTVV

[12] = target: Tyrosine-protein kinase Fes/Fps (Homo sapiens) (UniProt P07332); conditions: Compound concentration 1000.0 nM
[13] = target: Receptor-type tyrosine-protein kinase FLT3 (Homo sapiens) (UniProt P36888); conditions: Compound concentration 1000.0 nM
[14] = target: Tyrosine-protein kinase Fyn (Homo sapiens) (UniProt P06241); conditions: Compound concentration 1000.0 nM
Tyrosine-protein kinase Fyn (Homo sapiens), sequence (P06241 2-537 limits assumed): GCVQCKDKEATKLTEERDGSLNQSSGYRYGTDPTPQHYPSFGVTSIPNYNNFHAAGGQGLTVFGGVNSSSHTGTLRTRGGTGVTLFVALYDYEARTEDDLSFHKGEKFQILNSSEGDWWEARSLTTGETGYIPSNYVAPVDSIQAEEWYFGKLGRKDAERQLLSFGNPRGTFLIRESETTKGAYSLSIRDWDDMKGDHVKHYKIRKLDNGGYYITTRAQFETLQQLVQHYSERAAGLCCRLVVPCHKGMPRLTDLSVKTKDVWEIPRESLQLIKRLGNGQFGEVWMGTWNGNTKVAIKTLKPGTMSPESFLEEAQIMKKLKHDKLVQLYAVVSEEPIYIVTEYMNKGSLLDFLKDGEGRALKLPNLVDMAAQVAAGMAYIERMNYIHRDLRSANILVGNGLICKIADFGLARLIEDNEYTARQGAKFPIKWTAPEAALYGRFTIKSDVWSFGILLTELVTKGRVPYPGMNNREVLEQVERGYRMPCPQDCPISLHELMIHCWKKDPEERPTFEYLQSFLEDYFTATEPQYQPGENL

[15] = target: Mitogen-activated protein kinase kinase kinase kinase 1 (Homo sapiens) (UniProt Q92918); conditions: Compound concentration 1000.0 nM
[16] = target: Serine/threonine-protein kinase ICK (Homo sapiens) (UniProt Q9UPZ9); conditions: Compound concentration 1000.0 nM
[17] = target: Serine/threonine-protein kinase 26 (Homo sapiens) (UniProt Q9P289); conditions: Compound concentration 1000.0 nM
Serine/threonine-protein kinase 26 (Homo sapiens), sequence (Q9P289 2-416 limits assumed): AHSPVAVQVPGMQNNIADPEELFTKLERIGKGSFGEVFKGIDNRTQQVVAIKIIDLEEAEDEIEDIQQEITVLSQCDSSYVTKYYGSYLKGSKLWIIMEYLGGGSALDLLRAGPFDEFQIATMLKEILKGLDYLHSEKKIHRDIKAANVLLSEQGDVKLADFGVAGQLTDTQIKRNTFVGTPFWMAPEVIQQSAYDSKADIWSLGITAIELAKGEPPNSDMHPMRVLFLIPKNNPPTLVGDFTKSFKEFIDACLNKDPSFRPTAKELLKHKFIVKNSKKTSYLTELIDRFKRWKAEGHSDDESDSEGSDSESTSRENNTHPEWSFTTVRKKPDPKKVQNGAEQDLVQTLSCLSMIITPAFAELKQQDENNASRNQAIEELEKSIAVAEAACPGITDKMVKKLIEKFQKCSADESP

[18] = target: Serine/threonine-protein kinase Nek10 (Homo sapiens) (UniProt Q6ZWH5); conditions: Compound concentration 1000.0 nM
[19] = target: Serine/threonine-protein kinase PAK 4 (Homo sapiens) (UniProt O96013); conditions: Compound concentration 1000.0 nM
Serine/threonine-protein kinase PAK 4 (Homo sapiens), sequence (O96013 whole entry, looked up): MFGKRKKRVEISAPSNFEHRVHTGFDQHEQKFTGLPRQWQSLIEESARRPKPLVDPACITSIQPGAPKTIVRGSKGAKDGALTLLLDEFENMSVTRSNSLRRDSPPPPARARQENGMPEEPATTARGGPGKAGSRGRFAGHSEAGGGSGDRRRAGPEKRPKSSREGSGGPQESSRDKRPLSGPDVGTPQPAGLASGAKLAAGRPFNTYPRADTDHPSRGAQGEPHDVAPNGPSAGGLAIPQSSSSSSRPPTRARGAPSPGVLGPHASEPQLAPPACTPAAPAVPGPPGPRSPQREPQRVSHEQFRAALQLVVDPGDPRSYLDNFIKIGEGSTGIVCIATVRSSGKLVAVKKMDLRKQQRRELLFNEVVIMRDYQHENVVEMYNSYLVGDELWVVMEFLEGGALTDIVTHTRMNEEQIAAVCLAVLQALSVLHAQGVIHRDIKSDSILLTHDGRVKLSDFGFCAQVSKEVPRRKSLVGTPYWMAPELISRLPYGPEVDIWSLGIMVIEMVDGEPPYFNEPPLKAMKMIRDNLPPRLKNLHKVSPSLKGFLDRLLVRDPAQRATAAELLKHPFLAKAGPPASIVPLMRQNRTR

[20] = target: Cyclin-dependent kinase 15 (Homo sapiens) (UniProt Q96Q40); conditions: Compound concentration 1000.0 nM
[21] = target: Phosphorylase b kinase regulatory subunit alpha, liver isoform (Homo sapiens) (UniProt P46019); conditions: Compound concentration 1000.0 nM
[22] = target: Phosphatidylinositol 4,5-bisphosphate 3-kinase catalytic subunit alpha isoform (Homo sapiens) (UniProt P42336); conditions: Compound concentration 1000.0 nM
[23] = target: Ribosomal protein S6 kinase alpha-6 (Homo sapiens) (UniProt Q9UK32); conditions: Compound concentration 1000.0 nM
[24] = target: Testis-specific serine/threonine-protein kinase 1 (Homo sapiens) (UniProt Q9BXA7); conditions: Compound concentration 1000.0 nM
[25] = target: T2, Dual specificity protein kinase TTK (Homo sapiens) (UniProt P33981); conditions: Compound concentration 1000.0 nM
T2 sequence (whole entry): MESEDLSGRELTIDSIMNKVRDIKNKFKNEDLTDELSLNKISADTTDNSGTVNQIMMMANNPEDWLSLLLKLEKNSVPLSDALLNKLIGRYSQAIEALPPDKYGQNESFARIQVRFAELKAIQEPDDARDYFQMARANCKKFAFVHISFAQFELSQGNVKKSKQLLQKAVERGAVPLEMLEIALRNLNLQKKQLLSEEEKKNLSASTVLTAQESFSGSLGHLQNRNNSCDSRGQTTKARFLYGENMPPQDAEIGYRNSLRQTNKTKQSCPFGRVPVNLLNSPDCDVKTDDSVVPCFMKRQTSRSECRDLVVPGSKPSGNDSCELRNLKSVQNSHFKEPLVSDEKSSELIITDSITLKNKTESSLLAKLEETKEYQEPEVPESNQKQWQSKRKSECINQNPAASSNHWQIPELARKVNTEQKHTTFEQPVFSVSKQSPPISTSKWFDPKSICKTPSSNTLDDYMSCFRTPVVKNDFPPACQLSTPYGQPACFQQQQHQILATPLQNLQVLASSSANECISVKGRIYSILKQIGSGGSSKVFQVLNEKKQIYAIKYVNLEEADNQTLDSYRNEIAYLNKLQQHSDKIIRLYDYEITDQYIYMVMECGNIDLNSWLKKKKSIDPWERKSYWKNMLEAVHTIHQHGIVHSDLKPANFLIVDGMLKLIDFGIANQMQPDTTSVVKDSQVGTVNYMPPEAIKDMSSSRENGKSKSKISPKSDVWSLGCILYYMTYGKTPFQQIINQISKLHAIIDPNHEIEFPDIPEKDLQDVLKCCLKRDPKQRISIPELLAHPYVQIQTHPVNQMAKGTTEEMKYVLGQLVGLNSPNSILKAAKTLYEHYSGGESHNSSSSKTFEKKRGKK

[26] = target: D(2) dopamine receptor (Homo sapiens) (UniProt P14416); conditions: Compound concentration 10.0 uM
D(2) dopamine receptor (Homo sapiens), sequence (P14416 whole entry): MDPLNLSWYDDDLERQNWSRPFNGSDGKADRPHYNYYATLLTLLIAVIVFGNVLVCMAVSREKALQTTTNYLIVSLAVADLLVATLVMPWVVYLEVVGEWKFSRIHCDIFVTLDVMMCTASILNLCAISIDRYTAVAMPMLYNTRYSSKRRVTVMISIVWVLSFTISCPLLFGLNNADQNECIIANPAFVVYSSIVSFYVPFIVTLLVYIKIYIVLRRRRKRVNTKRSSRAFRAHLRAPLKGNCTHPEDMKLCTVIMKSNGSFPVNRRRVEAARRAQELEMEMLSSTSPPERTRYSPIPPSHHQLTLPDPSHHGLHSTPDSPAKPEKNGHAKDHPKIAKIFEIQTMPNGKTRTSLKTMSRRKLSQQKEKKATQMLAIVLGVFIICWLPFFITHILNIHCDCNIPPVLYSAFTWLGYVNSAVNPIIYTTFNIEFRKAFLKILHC

[27] = target: Sodium-dependent serotonin transporter (Homo sapiens) (UniProt P31645); conditions: Compound concentration 10.0 uM

Bone morphogenetic protein receptor type-1A (Homo sapiens), sequence (P36894 whole entry): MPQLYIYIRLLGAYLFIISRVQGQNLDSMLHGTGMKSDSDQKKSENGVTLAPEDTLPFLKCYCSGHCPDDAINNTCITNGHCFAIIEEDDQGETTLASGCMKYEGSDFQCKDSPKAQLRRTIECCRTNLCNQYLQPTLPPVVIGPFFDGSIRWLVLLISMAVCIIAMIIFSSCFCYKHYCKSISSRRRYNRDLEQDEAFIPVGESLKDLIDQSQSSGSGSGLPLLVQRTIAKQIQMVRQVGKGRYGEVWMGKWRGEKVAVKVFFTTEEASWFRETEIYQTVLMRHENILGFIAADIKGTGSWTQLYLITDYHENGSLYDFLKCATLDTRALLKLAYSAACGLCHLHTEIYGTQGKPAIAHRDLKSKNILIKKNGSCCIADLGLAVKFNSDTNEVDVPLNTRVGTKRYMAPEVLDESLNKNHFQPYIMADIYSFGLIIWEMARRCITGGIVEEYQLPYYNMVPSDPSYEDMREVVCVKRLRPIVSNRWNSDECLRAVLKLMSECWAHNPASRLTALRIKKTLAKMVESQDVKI

CN(C)C(=O)Cn1cc(-c2nc(C3(c4ccc(-c5cnc(N)nc5)cc4)CC3)no2)cn1 [BI 0153]
inactive: residual activity [1] 98% | residual activity [2] 87% | residual activity [3] 100% | residual activity [4] 100% | residual activity [5] 89% | residual activity [6] 100% | residual activity [7] 90% | residual activity [8] 100% | residual activity [9] 80% | residual activity [10] 92% | residual activity [11] 100% | residual activity [12] 100% | residual activity [13] 81% | residual activity [14] 100% | residual activity [15] 81% | residual activity [16] 76% | residual activity [17] 89% | residual activity [18] 99% | residual activity [19] 100% | residual activity [20] 100% | residual activity [21] 91% | residual activity [22] 76% | residual activity [23] 83% | residual activity [24] 100% | residual activity [25] 100% | inhibition [26] 16.1% | inhibition [27] 5.35%

CN(C)C(=O)Cn1cc(-c2nc([C@@](C)(c3ccc(-c4cnc(N)nc4)cc3)C3CC3)no2)cn1 [BI 665915]
inactive: residual activity [1] 95% | residual activity [2] 100% | residual activity [3] 100% | residual activity [4] 85% | residual activity [5] 99% | residual activity [6] 96% | residual activity [7] 100% | residual activity [8] 96% | residual activity [9] 100% | residual activity [10] 98% | residual activity [11] 100% | residual activity [12] 100% | residual activity [13] 82% | residual activity [14] 86% | residual activity [15] 100% | residual activity [16] 100% | residual activity [17] 97% | residual activity [18] 97% | residual activity [19] 96% | residual activity [20] 94% | residual activity [21] 80% | residual activity [22] 96% | residual activity [23] 96% | residual activity [24] 100% | residual activity [25] 100% | inhibition [26] 13.6% | inhibition [27] 6.28%
